# Values of other authors in patent publication US5721209A, “Iron chelator and inhibitor of iron-mediated oxidant injury” (The Regents of the University of California, priority 1995, dated 1998).
# Where two headings read alike, the source gives them in different places.
# How the values were obtained:
# [1] = prior known iron chelator
# ischemic myocardium = conditions: for prevention of reperfusion injury / myocardial infarct size: administered prior to reperfusion / prior to occurrence of the myocardial infarct
# neuroblastoma cells = conditions: removal of iron; growth of normal cells not similarly affected
# [2] = according to Macham
compound,measurement,setting,value
O=C(O)CN(CCN(CC(=O)O)CC(=O)O)CC(=O)O [EDTA],prevention of (.cndot.OH) production by the Fenton reaction,[1],do not prevent (.cndot.OH) production by the Fenton reaction
CC(=O)N(O)CCCCCNC(=O)CCC(=O)N(O)CCCCCNC(=O)CCC(=O)N(O)CCCCCN [deferoxamine],prevention of reperfusion injury,ischemic myocardium; administered at or after the onset of reperfusion,ineffective
same,prevention of reperfusion injury / myocardial infarct size,ischemic myocardium,prevents injury and reduces myocardial infarct size
same,prevention of reperfusion injury / myocardial infarct size,ischemic myocardium; listed as Desferoxamine,effective
same,growth of neuroblastoma cells,neuroblastoma cells,negatively affected
mycobactin,solubility,[2],water insoluble
